From US11274129B2, “Methods for protein tyrosine phosphorylation profiling with variant SH2 domains” (priority 2016, dated 2022)
Residue numbers refer to the chain shown, from its start.

B1: QuadM Src SH2: TrM human Src SH2 domain variant with additional mutation Thr218Trp in its specificity-binding pocket; His6-tagged form SEQ ID NO: 13 (protein)
chain: DSIQAEEWYFGKITRRESERLLLNAENPRGTFLVRESETVKGAYALSVSDFDNAKGLNVKHYLIRKLDSGGFYIWSRTQFNSLQQLVAYYSKHADGLCHRLTTVCPTSK
modifications: SH2 protein domain; QuadM human Src SH2 domain
B2: TrM Fyn SH2 domain: variant human Fyn SH2 domain with Thr181Val, Ser186Ala and Lys204Leu (protein)
chain: APVDSIQAEEWYFGKLGRKDAERQLLSFGNPRGTFLIRESETVKGAYALSIRDWDDMKGDHVKHYLIRKLDNGGYYITTRAQFETLQQLVQHYSERAAGLCCRLVVPCHKG
modifications: SH2 protein domain; TrM human Fyn SH2 domain
notes: variant human Fyn SH2 domain with Thr181Val, Ser186Ala and Lys204Leu
B3: wild-type Fyn SH2 domain: wild-type human Fyn SH2 domain (protein)
chain: B2 chain with V43T, A48S, L66K
modifications: SH2 protein domain; Wild-type human Fyn SH2 domain

What was measured:
BT-474 cells = experiment: Cell growth inhibition assay (CellTiter 96 AQueous One Solution Cell Proliferation Assay); type: cell-based, human; details: single inhibitor at different concentrations (FIG. 11A)
Method: (§1) Cell growth inhibition assays were performed with the CellTiter 96 AQueous One Solution Cell Proliferation Assay (Promega) according to the manufacturer's recommendations.

MCF-7 cells = experiment: as above; type: cell-based, human; details: single inhibitor at different concentrations (FIG. 11A)
Method: as §1

MDA-MB-231 cells = experiment: as above; type: cell-based, human; details: single inhibitor at different concentrations (FIG. 11A)
Method: as §1

SK-BR-3 cells = experiment: as above; type: cell-based, human; details: single inhibitor at different concentrations (FIG. 11A)
Method: as §1

[1] = system: pTyr-including peptides from pervanadate-treated Jurkat cells; experiment: Enrichment of pTyr-including peptides from pervanadate-treated Jurkat cells by affinity reagents, 1D LC-MS/MS; design: species or system human; details: 3 mg Jurkat peptides
Method: Experiments were conducted to determine the relative efficacy of the variant Src SH2 domains and commonly used anti-pTyr antibodies as affinity reagents for pTyr-including peptides from biological samples. His6/GST-tagged TrM Src SH2 domain (SEQ ID NO: 11) and His6-tagged QuadM Src SH2 domain (SEQ ID NO: 13), as well as anti-pTyr antibodies, were prepared in functionally-equivalent molar amounts by using half the molar amount of the antibodies relative to the SH2 domain variants given that each antibody molecule has two binding sites for its antigen.
The first experiment tested the relative ability of the following affinity reagents to extract pTyr-including peptides from a peptide mixture prepared from Jurkat cells: a His6/GST-tagged TrM Src SH2 (SEQ ID NO: 11), a His6-tagged QuadM Src SH2 (SEQ ID NO: 13), the anti-pTyr antibody 4G10 (agarose conjugate, obtained from Millipore), and a mixture of commercially-available anti-pTyr antibodies. […] The two SH2 affinity reagents were also tested at a 30× amount; the antibodies were not tested at a 30× amount due to the prohibitive cost of doing so. The purified SH2 affinity reagents were prepared as described in Example 1. The antibody mixture contained 4G10 (as above), PY99 (obtained from Santa Cruz Biotechnology), and P-Tyr-100 (slurry of PTMScan® Phospho-Tyrosine Mouse mAb, obtained from Cell Signaling Technology). Since the concentration of P-Tyr-100 is unknown, the amount was used as recommended by the vendor (i.e., 4 μL for 1 mg peptide digest).
FIG. 2A presents a schematic of the experimental design. Each amount of His6-tagged SH2 domain variant or antibody was subjected to a binding experiment with 3 mg of a peptide mixture prepared from pervanadate-treated Jurkat cells.
Jurkat cells (obtained from ATCC) were cultured in a humidified atmosphere of 5% CO2 at 37° C. in Roswell Park Memorial Institute 1640 medium (RPMI-1640) supplemented with 10% bovine serum and 100 U/mL of streptomycin and penicillin.
The cells were again collected by centrifugation. The cell pellets were gently homogenized in an ice-cold lysis buffer containing 8 M urea, 50 mM tris(hydroxymethyl)aminomethane (Tris)-HCl (pH 7.4), 2% protease inhibitor cocktail (v/v, obtained from Sigma-Aldrich), 1% Triton X-100 (v/v), 1 mM NaF, and 1 mM Na3VO4, followed by sonication at 400 W for 120 s. After centrifugation at 25,000 g for 1 h, proteins were precipitated in ice-cold acetone/ethanol/acetic acid (50/50/0.1, V/V/V) solution. Subsequently, the proteins were diluted in reducing buffer containing 100 mM triethylammonium bicarbonate (TEAB) buffer (pH 8.2) and 8 M urea, and the final protein concentration was determined by Bradford assay. The protein suspension was reduced in 10 mM dithiothreitol (DTT) at 37° C. for 2 h, and it was then alkylated in 20 mM iodoacetamide (IAA) in darkness at room temperature for another 30 min. Trypsin digestion was performed at 37° C. overnight with an enzyme-to-protein ratio of 1/25 (w/w). The resulting peptide mixture was stored at −80° C. for further analysis.
Desalted Jurkat peptides (30 mg) were dissolved in ice-cold immunoaffinity purification (IAP) buffer and then split into 10 aliquots with 3 mg of Jurkat peptides each. Binding experiments were performed with the amounts of antibody (1×, 5×) or SH2 domain variant (1×, 5×, 30×) set out in Table 1 and FIG. 2A.
For antibody-based enrichment, 4G10 or the antibody mixture was incubated with the sample at 4° C. overnight while rotating. The beads were washed three times with ice-cold IAP buffer and twice with ice-cold water. To release the bound peptides, the beads were eluted twice with 200 μL 0.15% trifluoroacetic acid (TFA) for 15 min at room temperature.
For SH2-based enrichment, Ni-NTA beads containing the purified SH2 proteins were washed extensively in twenty column volumes of PBS buffer (pH 7.0) containing 20 mM imidazole. […] The washed beads were incubated with the peptide mixture at 4° C. overnight while rotating. […]

[2] = system: pTyr-including peptide found in the sequence of the receptor tyrosine kinase EGFR; experiment: Binding of wild-type and TrM Fyn SH2 domain to EGFR pTyr peptide
From the text: The relative affinity of a variant SH2 domain, including a SH2 Superbinder, can be readily assessed compared to the affinity of the relevant parent SH2 domain, using binding assays known in the art, including as described in Kaneko, T. et al., “SH2 Superbinders act as antagonists of cell signaling”, (2012) Sci. Signal. 5: ra68; and U.S. patent application Ser. No. 14/388,592.

[3] = biological target: pTyr-including peptide found in the sequence of the receptor tyrosine kinase EGFR (Homo sapiens, UniProt P06241, K204L/S186A/T181V); details: read-out: equilibrium dissociation constant (Kd); cited from earlier work
[4] = biological target: pTyr-including peptide found in the sequence of the receptor tyrosine kinase EGFR (Homo sapiens, UniProt P06241); details: cited from earlier work

Row | Molecule | proliferation relative to no drug exposure (BT-474 cells) | proliferation relative to no drug exposure (MCF-7 cells) | proliferation relative to no drug exposure (MDA-MB-231 cells) | proliferation relative to no drug exposure (SK-BR-3 cells) | further results
1 | CNC(=O)c1c(F)cccc1Nc1nc(Nc2cc3c(cc2OC)CCN3C(=O)CN(C)C)nc2[nH]ccc12 [GSK1838705] | neither inhibitor had an effect | inhibited the proliferation of MCF-7 in a dose-dependent manner | neither inhibitor had an effect | neither inhibitor had an effect | –
2 | CCN1CCN(Cc2ccc(C(=O)Nc3ccc(C)c(Oc4ccc5c(c4)CC(=O)N5)c3)cc2C(F)(F)F)CC1 [DDR1-IN-1] | neither inhibitor had an effect | – | neither inhibitor had an effect | neither inhibitor had an effect | –
3 | CS(=O)(=O)CCNCc1ccc(-c2ccc3ncnc(Nc4ccc(OCc5cccc(F)c5)c(Cl)c4)c3c2)o1 [lapatinib] | sensitive | insensitive | insensitive | sensitive | –
4 | B1 | – | – | – | – | Number of pTyr sites identified ([1]; 0.375 nmol (1x) pTyr-binding sites): 679; Number of pTyr sites identified ([1]; 1.875 nmol (5x) pTyr-binding sites): 938; Number of pTyr sites identified ([1]; 11.25 nmol (30x) pTyr-binding sites): 1186
5 | B2 | – | – | – | – | fold tighter binding than wild-type Fyn SH2 domain [2]: around 380 fold; Kd [3]: 9.7 nM
6 | B3 | – | – | – | – | Kd [4]: 3700 nM
